According to publication PMC11053447, “Human ABC and SLC Transporters: The Culprit Responsible for Unspecific PSMA-617 Uptake?” (Pharmaceuticals, 2024):
Where two headings read alike, the source gives them in different places.

Tests used:
[1] = molecular target: T1, human OAT2v1 (Homo sapiens, UniProt Q9Y694); test: SLC transporter substrate assay, HEK293-OAT2v1-LV vs control HEK293-Mock-LV cells; format: in vitro ADME; conditions: 20 min
T1 construct: host or cells: HEK293-OAT2v1-LV
T1 sequence (Q9Y694 1-546 isoform Q9Y694-2): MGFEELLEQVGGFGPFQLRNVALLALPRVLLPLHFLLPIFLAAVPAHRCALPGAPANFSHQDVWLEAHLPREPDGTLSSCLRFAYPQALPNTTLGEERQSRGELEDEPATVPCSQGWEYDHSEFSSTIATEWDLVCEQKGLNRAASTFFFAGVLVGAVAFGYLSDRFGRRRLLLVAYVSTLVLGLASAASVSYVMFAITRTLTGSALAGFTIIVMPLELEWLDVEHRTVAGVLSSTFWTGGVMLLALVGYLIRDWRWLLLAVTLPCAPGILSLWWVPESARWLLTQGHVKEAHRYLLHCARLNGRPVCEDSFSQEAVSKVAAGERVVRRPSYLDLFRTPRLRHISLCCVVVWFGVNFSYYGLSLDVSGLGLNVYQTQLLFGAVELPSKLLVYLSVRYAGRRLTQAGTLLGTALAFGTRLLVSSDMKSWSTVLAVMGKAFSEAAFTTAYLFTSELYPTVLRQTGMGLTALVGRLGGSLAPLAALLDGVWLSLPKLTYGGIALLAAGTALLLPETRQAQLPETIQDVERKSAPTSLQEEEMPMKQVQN
Procedure: (§1) SI4. Results of transporter substrate assays (SLC)
(§2) Human Incubation Positive control substrate/ Control Special Incubation Assay […]
(Cell line) at 37°C [min] [h]
OAT2v1 cGMP (1.5) / Mock-B- Poly-D-lysine
(§3) Fold accumulation = UPTTRP
(§4) PSMA-617 in SLC transporters.
(§5) NA: not analyzed. Test substances were considered as substrates in case of fold accumulation values > 2 combined with inhibition values higher than 50%.
4.4 Organic anion transporter OAT2v1 […]
expressed as mean (n=3) ± SD. Concentrations are nominal.
Table S13: ([α,β-3H]Nal)Lu-PSMA-617-accumulation in OAT2v1 transporter expressing (HEK293-OAT2v1-LV) and […]
(§6) Conditions Accumulation (pmol/mg protein)
Compound Nominal In OAT2v1 Fold concentration Minutes transporter In control Active accumulation
(§7) [µM] expressing cells transport
(§8) Positive control (accumulation in cpm)

[2] = molecular target: MDR1 (Homo sapiens, UniProt P08183); conditions: for Relative inhibition / ATP dependent transport / Relative ATP dependent transport: NMQ probe; for ATP dependent transport / Relative ATP dependent transport: mean (n=3) ± SD
MDR1, sequence (P08183 whole entry): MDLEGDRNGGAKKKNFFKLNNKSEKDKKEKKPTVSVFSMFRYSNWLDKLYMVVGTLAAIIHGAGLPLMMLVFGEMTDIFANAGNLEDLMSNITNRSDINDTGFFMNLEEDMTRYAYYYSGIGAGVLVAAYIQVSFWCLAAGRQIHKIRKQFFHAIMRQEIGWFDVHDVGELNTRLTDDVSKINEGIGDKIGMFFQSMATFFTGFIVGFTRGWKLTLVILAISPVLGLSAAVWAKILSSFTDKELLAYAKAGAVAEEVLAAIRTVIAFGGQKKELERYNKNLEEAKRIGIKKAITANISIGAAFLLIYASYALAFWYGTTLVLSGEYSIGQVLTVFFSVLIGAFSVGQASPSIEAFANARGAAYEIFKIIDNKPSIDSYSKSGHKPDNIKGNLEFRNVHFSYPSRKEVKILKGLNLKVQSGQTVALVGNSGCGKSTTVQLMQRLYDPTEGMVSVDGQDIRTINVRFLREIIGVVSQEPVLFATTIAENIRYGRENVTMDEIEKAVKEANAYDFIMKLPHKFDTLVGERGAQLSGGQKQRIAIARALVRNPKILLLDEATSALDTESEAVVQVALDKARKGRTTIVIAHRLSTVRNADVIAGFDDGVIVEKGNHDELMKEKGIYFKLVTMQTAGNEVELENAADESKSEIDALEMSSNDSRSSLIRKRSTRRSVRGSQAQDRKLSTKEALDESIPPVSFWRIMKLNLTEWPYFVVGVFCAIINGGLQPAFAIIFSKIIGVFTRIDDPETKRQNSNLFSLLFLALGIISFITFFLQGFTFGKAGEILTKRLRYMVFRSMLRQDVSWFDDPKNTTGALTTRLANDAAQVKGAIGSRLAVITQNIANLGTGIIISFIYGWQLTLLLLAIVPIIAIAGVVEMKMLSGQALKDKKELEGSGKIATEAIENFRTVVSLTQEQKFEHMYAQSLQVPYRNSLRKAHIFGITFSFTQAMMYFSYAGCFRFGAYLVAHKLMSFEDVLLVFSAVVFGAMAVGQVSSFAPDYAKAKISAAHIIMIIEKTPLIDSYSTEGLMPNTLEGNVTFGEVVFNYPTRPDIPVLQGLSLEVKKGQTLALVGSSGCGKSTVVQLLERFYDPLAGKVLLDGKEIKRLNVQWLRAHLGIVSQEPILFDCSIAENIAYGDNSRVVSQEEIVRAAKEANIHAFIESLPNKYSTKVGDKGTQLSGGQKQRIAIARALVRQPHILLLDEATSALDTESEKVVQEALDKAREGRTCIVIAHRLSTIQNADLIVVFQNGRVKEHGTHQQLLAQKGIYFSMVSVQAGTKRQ

[3] = molecular target: T2, human OCT3 (Homo sapiens, UniProt O75751); test: SLC transporter substrate assay, HEK293-OCT3-LV vs control HEK293-Mock-LV cells; format: in vitro ADME
T2 construct: host or cells: HEK293-OCT3-LV
T2 sequence (O75751 1-556): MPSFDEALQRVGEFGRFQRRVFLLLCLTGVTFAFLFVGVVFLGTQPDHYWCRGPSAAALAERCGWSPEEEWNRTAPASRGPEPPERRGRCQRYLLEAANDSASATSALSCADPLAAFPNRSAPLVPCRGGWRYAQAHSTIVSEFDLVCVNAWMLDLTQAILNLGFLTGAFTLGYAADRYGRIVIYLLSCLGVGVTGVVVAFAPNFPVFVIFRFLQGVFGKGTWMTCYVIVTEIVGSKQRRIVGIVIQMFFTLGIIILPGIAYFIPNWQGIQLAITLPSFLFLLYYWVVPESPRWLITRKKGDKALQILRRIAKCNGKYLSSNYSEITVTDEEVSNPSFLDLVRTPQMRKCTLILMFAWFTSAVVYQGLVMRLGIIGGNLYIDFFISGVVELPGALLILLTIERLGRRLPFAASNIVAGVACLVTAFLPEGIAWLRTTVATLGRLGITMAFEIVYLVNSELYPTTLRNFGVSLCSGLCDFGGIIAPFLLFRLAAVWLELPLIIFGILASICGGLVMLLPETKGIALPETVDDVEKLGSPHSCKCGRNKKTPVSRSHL
Procedure: as §1, §2
(Cell line) at 37°C [min] [h] […]
into transfected and control cells.
as §3, §4, §5
4.7 Organic cation transporter OCT3
(HEK293-OCT3-LV) and control cells (HEK293-Mock-LV) applying 2- and 20-minute incubation periods, measured in SLC transporter substrate assay. […] Concentrations are nominal.
Table S16: ([α,β-3H]Nal)Lu-PSMA-617-accumulation in OCT3 transporter-expressing (HEK293-OCT3-LV) and control […]
as §6
Compound Nominal In OCT3 Fold concentration Minutes transporter In control Active accumulation
as §7, §8
MPP +: 1-methyl -4-phenylpyridinium.

[4] = molecular target: MRP1 (Homo sapiens, UniProt P33527); conditions: for Relative inhibition / ATP dependent transport / Relative ATP dependent transport: E217βG probe; for ATP dependent transport / Relative ATP dependent transport: mean (n=3) ± SD
MRP1, sequence (P33527 whole entry): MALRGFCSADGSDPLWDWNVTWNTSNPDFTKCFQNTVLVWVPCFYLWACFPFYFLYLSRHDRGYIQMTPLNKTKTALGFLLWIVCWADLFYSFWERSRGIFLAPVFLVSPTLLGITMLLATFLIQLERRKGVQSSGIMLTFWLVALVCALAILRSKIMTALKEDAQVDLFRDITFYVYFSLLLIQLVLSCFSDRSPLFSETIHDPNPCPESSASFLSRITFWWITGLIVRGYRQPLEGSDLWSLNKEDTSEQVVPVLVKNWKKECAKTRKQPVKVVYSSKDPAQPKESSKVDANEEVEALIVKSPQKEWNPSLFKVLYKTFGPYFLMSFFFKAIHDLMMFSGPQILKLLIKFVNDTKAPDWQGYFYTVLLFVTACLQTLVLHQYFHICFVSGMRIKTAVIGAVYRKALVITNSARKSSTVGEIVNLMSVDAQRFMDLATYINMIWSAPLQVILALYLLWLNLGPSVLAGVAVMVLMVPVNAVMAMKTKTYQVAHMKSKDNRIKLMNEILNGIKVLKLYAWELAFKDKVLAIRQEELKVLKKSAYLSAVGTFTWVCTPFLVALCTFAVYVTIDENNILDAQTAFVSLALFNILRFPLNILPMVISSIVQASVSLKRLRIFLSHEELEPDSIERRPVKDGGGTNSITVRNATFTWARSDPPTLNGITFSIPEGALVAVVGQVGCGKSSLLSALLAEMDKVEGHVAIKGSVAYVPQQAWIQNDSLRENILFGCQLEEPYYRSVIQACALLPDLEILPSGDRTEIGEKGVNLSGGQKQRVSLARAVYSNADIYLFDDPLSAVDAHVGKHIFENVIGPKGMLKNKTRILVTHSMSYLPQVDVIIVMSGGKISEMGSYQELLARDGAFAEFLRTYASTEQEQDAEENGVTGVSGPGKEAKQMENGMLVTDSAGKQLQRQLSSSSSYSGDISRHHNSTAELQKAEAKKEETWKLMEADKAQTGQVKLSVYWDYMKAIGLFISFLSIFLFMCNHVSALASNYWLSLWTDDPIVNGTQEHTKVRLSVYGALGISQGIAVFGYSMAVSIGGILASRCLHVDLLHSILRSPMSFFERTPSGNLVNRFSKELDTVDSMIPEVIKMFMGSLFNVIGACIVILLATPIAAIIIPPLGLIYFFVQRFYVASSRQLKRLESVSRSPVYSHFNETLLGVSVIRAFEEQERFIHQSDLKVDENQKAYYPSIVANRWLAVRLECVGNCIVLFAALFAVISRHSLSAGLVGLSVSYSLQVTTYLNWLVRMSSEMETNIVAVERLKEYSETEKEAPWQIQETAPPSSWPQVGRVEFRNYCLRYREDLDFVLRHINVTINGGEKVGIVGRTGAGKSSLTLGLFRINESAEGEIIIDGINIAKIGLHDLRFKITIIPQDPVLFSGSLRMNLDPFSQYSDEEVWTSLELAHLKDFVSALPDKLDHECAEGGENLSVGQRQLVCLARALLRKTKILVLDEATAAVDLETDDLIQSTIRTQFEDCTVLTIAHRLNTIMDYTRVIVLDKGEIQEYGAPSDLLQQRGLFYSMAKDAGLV

[5] = 0.03 µM nominal + Indomethacin 300 µM
[6] = 0.30 µM nominal + Indomethacin 300 µM
[7] = 0.30 and 3.00 µM, inhibition >20% defined as significant

## [3H]C(c1ccc2ccccc2c1)C([3H])(NC(=O)C1CCC(CNC(=O)CN2CCN(CC(=O)[O-])CCN(CC(=O)[O-])CCN(CC(=O)[O-])CC2)CC1)C(=O)NCCCCC(NC(=O)NC(CCC(=O)O)C(=O)O)C(=O)O.[Lu+3] (stereo not drawn) [([α,β-^3H]Nal)Lu-PSMA-617]
[1]; [5]
  Accumulation in OAT2v1 transporter expressing cells: 0.06 ± 0.01 pmol/mg protein
  Accumulation in control cells: 0.04 ± 0.00 pmol/mg protein
  Accumulation, active transport: 0.01 ± 0.01 pmol/mg protein
  Fold accumulation: 1.24
[1]; 0.03 µM nominal, no inhibitor
  Accumulation in OAT2v1 transporter expressing cells: 0.07 ± 0.01 pmol/mg protein
  Accumulation in control cells: 0.04 ± 0.00 pmol/mg protein
  Accumulation, active transport: 0.03 ± 0.01 pmol/mg protein
  Fold accumulation: 1.77
[1]; [6]
  Accumulation in OAT2v1 transporter expressing cells: 0.66 ± 0.10 pmol/mg protein
  Accumulation in control cells: 0.43 ± 0.03 pmol/mg protein
  Accumulation, active transport: 0.24 ± 0.10 pmol/mg protein
  Fold accumulation: 1.55
[1]; 0.30 µM nominal, no inhibitor
  Accumulation in OAT2v1 transporter expressing cells: 0.66 ± 0.04 pmol/mg protein
  Accumulation in control cells: 0.36 ± 0.03 pmol/mg protein
  Accumulation, active transport: 0.30 ± 0.05 pmol/mg protein
  Fold accumulation: 1.83
[1]; 0.3 µM
  Max. transporter-specific fold accumulation, without inhibitor: 1.83
[1]; absence and presence of indomethacin
  Uptake via transporter (OAT2v1): not taken up
[1]; Indomethacin, 0.3 µM
  Max. transporter-specific fold accumulation, with inhibitor: 1.55
[2]; [7]
  Inhibitor assessment (MDR1): no inhibitor
[2]; test substance 0.30 µM nominal
  Relative inhibition: 8%
  ATP dependent transport: 4902.67 ± 183.91 pmol/mg/min
  Relative ATP dependent transport: 91.93 ± 3.56 % of control
[2]; test substance 3.00 µM nominal
  Relative inhibition: -5%
  ATP dependent transport: 5625.67 ± 230.64 pmol/mg/min
  Relative ATP dependent transport: 105.48 ± 4.44 % of control
[3]; 0.03 µM nominal, 2 min
  Accumulation in OCT3 transporter expressing cells: 0.026 ± 0.005 pmol/mg protein
  Accumulation in control cells: 0.022 ± 0.002 pmol/mg protein
  Accumulation, active transport: 0.003 ± 0.005 pmol/mg protein
  Fold accumulation: 1.15
[3]; 0.03 µM nominal, 20 min
  Accumulation in OCT3 transporter expressing cells: 0.041 ± 0.004 pmol/mg protein
  Accumulation in control cells: 0.032 ± 0.005 pmol/mg protein
  Accumulation, active transport: 0.009 ± 0.006 pmol/mg protein
  Fold accumulation: 1.29
[3]; 0.30 µM nominal, 2 min
  Accumulation in OCT3 transporter expressing cells: 0.351 ± 0.047 pmol/mg protein
  Accumulation in control cells: 0.277 ± 0.047 pmol/mg protein
  Accumulation, active transport: 0.074 ± 0.067 pmol/mg protein
  Fold accumulation: 1.27
[3]; 0.30 µM nominal, 20 min
  Accumulation in OCT3 transporter expressing cells: 0.446 ± 0.098 pmol/mg protein
  Accumulation in control cells: 0.332 ± 0.047 pmol/mg protein
  Accumulation, active transport: 0.113 ± 0.109 pmol/mg protein
  Fold accumulation: 1.34
[3]; 0.03, 0.30 µM, 2, 20 min
  Substrate assessment (OCT3): no in vitro substrate
[3]; 20 min, 0.3 µM
  Max. transporter-specific fold accumulation, without inhibitor: 1.34
[4]; [7]
  Inhibitor assessment (MRP1): no inhibitor
[4]; test substance 0.30 µM nominal
  Relative inhibition: 9%
  ATP dependent transport: 734.00 ± 31.29 pmol/mg/min
  Relative ATP dependent transport: 91.45 ± 7.39 % of control
[4]; test substance 3.00 µM nominal
  Relative inhibition: 9%
  ATP dependent transport: 730.00 ± 37.02 pmol/mg/min
  Relative ATP dependent transport: 90.95 ± 7.76 % of control
